This is an account of results in publication PMC3573846 (International journal of pharmaceutics, 2012).

Series [1] concerns P-gp and Bcrp1 at the mouse BBB. Conditions: zosuquidar 25 mg/kg or Ko143 10 mg/kg i.v. 30 min prior to pazopanib 5 mg/kg i.v.; 60 min post dose.
For series [2], the target named is P-gp (MDR1), MDCKII-MDR1 transfected cells (Homo sapiens, UniProt P08183). Briefly: Cellular accumulation of pazopanib in MDCKII-MDR1 vs WT cells. Format: in vitro ADME. Particulars: 0.1 μM pazopanib, 60 min, no inhibitor.
Series [3] in a line: in vivo. Conditions: male, mouse, 5 mg/kg.
Series [4] in a line: Brain accumulation and plasma pharmacokinetics of pazopanib in FVB mice. Conditions: for half-life: 5 mg/kg.
Series [5] has as its target T1, Bcrp1, MDCKII-Bcrp1 transfected cells (Mus musculus, UniProt Q7TMS5).
T1 sequence (Q7TMS5 1-657): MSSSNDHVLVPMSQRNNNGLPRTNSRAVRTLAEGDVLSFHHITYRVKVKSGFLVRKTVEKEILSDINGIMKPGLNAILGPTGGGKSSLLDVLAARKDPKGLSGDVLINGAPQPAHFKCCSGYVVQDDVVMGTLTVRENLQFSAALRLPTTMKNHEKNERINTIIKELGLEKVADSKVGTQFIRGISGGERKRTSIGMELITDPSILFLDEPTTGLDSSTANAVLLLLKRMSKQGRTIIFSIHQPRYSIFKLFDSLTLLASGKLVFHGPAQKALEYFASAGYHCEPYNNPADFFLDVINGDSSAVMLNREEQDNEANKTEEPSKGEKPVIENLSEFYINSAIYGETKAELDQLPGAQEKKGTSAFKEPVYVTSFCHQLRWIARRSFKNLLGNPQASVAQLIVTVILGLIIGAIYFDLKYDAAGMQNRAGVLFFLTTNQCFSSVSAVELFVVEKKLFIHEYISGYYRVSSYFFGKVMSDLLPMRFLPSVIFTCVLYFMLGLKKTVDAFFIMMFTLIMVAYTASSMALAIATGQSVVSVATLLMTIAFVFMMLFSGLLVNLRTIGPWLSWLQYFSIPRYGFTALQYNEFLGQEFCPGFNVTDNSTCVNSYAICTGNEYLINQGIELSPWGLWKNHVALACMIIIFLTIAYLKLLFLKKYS
Briefly: Cellular accumulation of pazopanib in MDCKII-Bcrp1 vs WT cells. Format: in vitro ADME, murine. Conditions: 0.1 μM pazopanib, 60 min, no inhibitor.

Series [6] is described as follows: Bi-directional transport across MDCK-WT monolayers. It counts as in vitro ADME, canine. Conditions: dog.
The target of series [7] is P-gp (MDR1), MDCK-MDR1 cell monolayers (Homo sapiens, UniProt P08183). Briefly: Bi-directional transport across MDCK-MDR1 monolayers. It counts as in vitro ADME.
Series [8] deals with P-gp (MDR1) (Homo sapiens, UniProt P08183). The description is as above. It counts as in vitro ADME. Conditions: dog.
Series [9] addresses T2, Bcrp1, MDCK-Bcrp1 cell monolayers (Mus musculus, UniProt Q7TMS5).
T2 sequence (Q7TMS5 1-657): T1 sequence (Q7TMS5 1-657)
As to the kind of experiment: Bi-directional transport across MDCK-Bcrp1 monolayers. Format: in vitro ADME, murine.

In series [10] the target is T3, Bcrp1 (murine) (Mus musculus, UniProt Q7TMS5).
T3 sequence (Q7TMS5 1-657): T1 sequence (Q7TMS5 1-657)
The series is described as above. It counts as in vitro ADME. Particulars: dog.

Series [11] has as its target T4, Bcrp1 (Mus musculus, UniProt Q7TMS5).
T4 sequence (Q7TMS5 1-657): T1 sequence (Q7TMS5 1-657)
The description is as above. It counts as in vitro ADME, murine. Conditions: mouse, Efflux ratio, MDCK-Bcrp1, 5 μM pazopanib, no inhibitor.

Series [12] deals with P-gp at BBB. Particulars: mouse, in vivo; cited from earlier work.
Setting [13] is: brain, pazopanib 5 mg/kg i.v. + elacridar (GF120918) 10 mg/kg.
Setting [14] is: brain, pazopanib alone, 5 mg/kg i.v. bolus.
[15] abbreviates: plasma, pazopanib 5 mg/kg i.v. + elacridar (GF120918) 10 mg/kg.
[16] abbreviates: plasma, pazopanib alone, 5 mg/kg i.v. bolus.
[17] abbreviates: in vitro MDCKII cell monolayers.

As usually defined, the Kp is tissue or fluid exposure divided by exposure in the circulation. The Vd is a proportionality between amount in the body and measured concentration, not a real space. In general, clearance refers to the rate of elimination divided by the concentration. Broadly, the half-life is the time needed for the level to fall by half in the phase considered. A low value points to rapid decline. By Papp A→B is commonly meant the apparent permeability from the apical to the basolateral side of a cell layer. Lower therefore signals slow passage. What is called Papp B→A is the apparent permeability from the basolateral to the apical side of a cell layer. The efflux ratio is a quotient of directional permeabilities that is used to spot active efflux.

Chain of P-gp (MDR1) (P08183 whole entry): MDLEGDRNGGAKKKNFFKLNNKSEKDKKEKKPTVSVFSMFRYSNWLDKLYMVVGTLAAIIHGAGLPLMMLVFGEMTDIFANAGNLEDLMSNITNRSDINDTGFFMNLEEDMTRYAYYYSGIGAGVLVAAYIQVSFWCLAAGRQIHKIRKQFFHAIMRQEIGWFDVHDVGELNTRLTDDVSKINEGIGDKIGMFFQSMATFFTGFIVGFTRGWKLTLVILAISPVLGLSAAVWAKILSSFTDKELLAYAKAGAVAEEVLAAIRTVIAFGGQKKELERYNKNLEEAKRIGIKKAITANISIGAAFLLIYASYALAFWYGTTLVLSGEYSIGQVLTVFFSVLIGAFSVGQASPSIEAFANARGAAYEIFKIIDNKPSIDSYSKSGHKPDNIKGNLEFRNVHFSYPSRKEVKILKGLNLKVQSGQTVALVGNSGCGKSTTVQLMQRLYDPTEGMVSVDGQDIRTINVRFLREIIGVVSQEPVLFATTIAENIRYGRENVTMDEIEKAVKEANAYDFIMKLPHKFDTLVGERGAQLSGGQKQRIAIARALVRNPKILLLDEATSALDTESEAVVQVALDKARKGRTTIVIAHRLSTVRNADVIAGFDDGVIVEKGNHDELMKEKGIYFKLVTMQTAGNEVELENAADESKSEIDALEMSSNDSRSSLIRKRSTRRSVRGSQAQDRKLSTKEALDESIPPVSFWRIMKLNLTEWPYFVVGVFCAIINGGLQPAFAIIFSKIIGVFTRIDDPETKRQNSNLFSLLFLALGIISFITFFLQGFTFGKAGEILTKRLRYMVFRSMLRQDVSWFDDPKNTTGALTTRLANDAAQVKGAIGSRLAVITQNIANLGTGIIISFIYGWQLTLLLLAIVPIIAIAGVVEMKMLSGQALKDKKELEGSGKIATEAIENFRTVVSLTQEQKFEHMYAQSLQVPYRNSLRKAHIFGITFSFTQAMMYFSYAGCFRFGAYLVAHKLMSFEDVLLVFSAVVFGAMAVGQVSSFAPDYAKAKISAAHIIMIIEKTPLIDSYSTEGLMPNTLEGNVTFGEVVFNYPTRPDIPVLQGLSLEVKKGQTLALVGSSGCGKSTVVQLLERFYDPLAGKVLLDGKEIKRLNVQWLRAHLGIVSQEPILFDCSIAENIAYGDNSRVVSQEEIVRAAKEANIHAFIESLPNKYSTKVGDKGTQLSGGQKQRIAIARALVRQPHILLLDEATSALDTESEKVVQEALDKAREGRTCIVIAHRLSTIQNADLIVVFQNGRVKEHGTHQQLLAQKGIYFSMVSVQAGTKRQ
Chain of P-gp (MDR1), MDCK-MDR1 cell monolayers (P08183 whole entry): as above
Chain of P-gp (MDR1), MDCKII-MDR1 transfected cells (P08183 whole entry): as above

In the case of `COc1ccc2c3c([nH]c2c1)[C@H](CC(C)C)N1C(=O)[C@H](CCC(=O)OC(C)(C)C)NC(=O)[C@@H]1C3` [Ko143], the “Effect on pazopanib brain concentration” value in series [1] is on record as “did not significantly alter”.

On to `Cc1ccc(Nc2nccc(N(C)c3ccc4c(C)n(C)nc4c3)n2)cc1S(N)(=O)=O` [Pazopanib], for which the “Pazopanib accumulation in MDR1 overexpressing cells relative to WT cells” value in series [2] is 60 % of WT cells. Moreover, the k el in [3] (FVB wild type, brain, iv) is 0.000103 s⁻¹; in series [3] (FVB wild type, plasma, iv), 0.000139 s⁻¹. The same compound yielded a Kp in series [3] (FVB wild type, brain/plasma, iv) of 0.015. In series [3] (FVB wild type, plasma, iv), this compound returned a Vd of 0.286 L/kg. The clearance is 2.38 mL/min/kg in series [3] (FVB wild type, plasma, iv) and 2.49 mL/min/kg in [4] (setting [15]). The compound also yielded a concentration at 15 min in series [3] (FVB, brain, intravenous) of 293 ± 52 ng/g. In series [3] (FVB, brain, intravenous), this compound displayed a concentration at 30 min of 157 ± 2 ng/g. Further, in series [3] (FVB, brain, intravenous), the concentration at 60 min turned out to be 95 ± 11 ng/g. Moreover, the half-life in series [3] (FVB, brain, iv) is 1.9 h; in [3] (FVB, plasma, iv) it was 1.4 h; in series [4] (setting [14]) it was 1.89 h; in [4] (setting [16]) it was 1.39 h. Further, in [3] (FVB, brain/plasma, intravenous), the Kp at 30 min worked out at 0.0113 ± 0.005. For the same compound, in series [3] (FVB, brain/plasma, intravenous), the Kp at 60 min was found to be 0.009 ± 0.001. Further, the “AUC (0 → tlast)” value in series [4] (setting [13]) is 0.042 ± 0.003 mg·min/mL; in [4] (setting [14]), 0.020 ± 0.001 mg·min/mL; in series [4] (setting [15]) it was 1.029 ± 0.071 mg·min/mL; in series [4] (setting [16]), 1.356 ± 0.043 mg·min/mL. The λz worked out at 0.25 h⁻¹ in series [4] (setting [13]) and 0.38 h⁻¹ in series [4] (plasma, pazopanib 5 mg/kg i.v. + elacridar (GF120918) 10 mg/kg i.v. 30 min prior). For the same compound, the Volume of distribution in series [4] (setting [15]) is 0.39822 L/kg. In series [5], the “Pazopanib accumulation in Bcrp1 overexpressing cells relative to WT cells” value is “approximately 5 % of WT cells”. Besides, the Papp A→B at 240 min, 5 μM in [6] is 2.92 ± 0.33 ×10⁻⁶ cm/s; in series [8] (MDCK-MDR1) it was 3.73 ± 0.17 ×10⁻⁶ cm/s; in series [10], 0.2 ± 0.04 ×10⁻⁶ cm/s. The Papp B→A at 240 min, 5 μM in series [6] is 3.1 ± 0.22 ×10⁻⁶ cm/s; in [8] (MDCK-MDR1), 6.3 ± 0.56 ×10⁻⁶ cm/s; in series [10], 9.71 ± 0.09 ×10⁻⁶ cm/s. Besides, the efflux ratio at 240 min, 5 μM in [6] was determined as 1.06; in [8] (MDCK-MDR1, Efflux ratio, MDCK-MDR1, 5 μM pazopanib, no inhibitor), 1.7; in series [10] (with Ko143 200 nM, Efflux ratio, MDCK-Bcrp1, 5 μM pazopanib + 200 nM Ko143) it was 1.35; in series [11] it was 47. The Efflux ratio in series [7] (MDCK-MDR1, 5 μM pazopanib + 1 μM zosuquidar (LY)) is 1.07; in series [9] (MDCK-Bcrp1, 5 μM pazopanib, no inhibitor), 47.1. In series [7] (setting [17]), the “Substrate classification for P-gp” value was “moderate substrate”. The “Substrate classification for Bcrp1” value in series [9] (setting [17]) was “high affinity substrate”.

With `O[C@@H](COc1cccc2ncccc12)CN1CCN([C@@H]2c3ccccc3[C@@H]3[C@H](c4ccccc42)C3(F)F)CC1` [zosuquidar], the “Enhanced brain penetration of paclitaxel upon co-administration” value in [12] is ~ 5.6 fold. Further, in series [1], the “Effect on pazopanib brain concentration” value was “did not significantly alter”.
